The values that follow come from ChEMBL document CHEMBL1201862, “PubChem BioAssay data set” (2004).

As a reminder, the AC50 is the concentration at which the activity in the assay is half-maximal. For orientation: CC50 means the concentration at which the toxic effect on the cells reaches its halfway point.

For assay [1], the target named is T1, Heat shock factor protein 1 (Mus musculus, UniProt P38532).
T1 sequence (P38532 whole entry): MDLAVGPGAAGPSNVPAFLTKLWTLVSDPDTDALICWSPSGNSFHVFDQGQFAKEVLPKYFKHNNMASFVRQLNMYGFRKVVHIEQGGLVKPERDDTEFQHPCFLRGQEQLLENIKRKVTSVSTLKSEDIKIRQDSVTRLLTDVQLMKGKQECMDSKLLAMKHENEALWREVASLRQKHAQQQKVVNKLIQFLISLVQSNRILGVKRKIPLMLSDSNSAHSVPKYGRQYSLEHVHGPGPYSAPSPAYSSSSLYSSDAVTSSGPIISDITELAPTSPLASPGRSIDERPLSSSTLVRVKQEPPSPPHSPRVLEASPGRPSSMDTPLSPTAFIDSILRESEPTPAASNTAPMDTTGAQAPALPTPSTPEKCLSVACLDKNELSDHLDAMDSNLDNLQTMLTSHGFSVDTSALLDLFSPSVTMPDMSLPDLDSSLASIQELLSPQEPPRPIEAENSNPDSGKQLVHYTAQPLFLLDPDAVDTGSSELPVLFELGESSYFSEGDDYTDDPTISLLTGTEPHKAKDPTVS
The assay is described as follows: HSF1 potentiators in luciferase reporter cells, confirmation, cell-based, NIH3T3, luminescence, dose retest (AID 435004).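 Note: stress induced by proteasome inhibitor MG132 added 30 min after compound; luciferase reporter driven by HSF1 response element in NIH3T3 cells; actives raise luminescence as potentiators of the MG132 stress response.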 It is filed as functional. On the technique in general: Reporter assays use an easily measured gene product as a stand-in for the process of interest.

For assay [2], the target named is T2, Polyadenylate-binding protein 1 (Homo sapiens, UniProt P11940). The assay can be described thus: PABP1 MLLE–PAM2 interaction inhibitors, dose response, miRNA deadenylation inhibitor project, biochemical, fluorescence polarization, Cy5-PAM2 peptide, secondary (AID 602260). Conditions: read-out: IC50_Mean. The class given is functional. On the technique in general: Polarisation of emitted light reports the rotation of a fluorescent probe.

Assay [3] has as its target T2, Polyadenylate-binding protein 1. The assay is described as follows: PABP1 MLLE–PAM2 binding inhibitor potency, dose response, biochemical, fluorescence polarization, FITC-PAM2 peptide (AID 602259). It is filed as functional. Conditions: read-out: IC50_Mean.
For assay [4], the target named is T3, Fatty acid synthase (Homo sapiens, UniProt P49327). The assay is described as follows: FAS thioesterase domain inhibitors, dose response, biochemical, endpoint fluorescence intensity, uHTS hits (AID 624327).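 Note: fluorescence from hydrolysis of an O-methyl fluorescein acyl ester substrate by the enzyme.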 The class given is functional.
The target in assay [5] is T3, Fatty acid synthase. The assay is described as follows: FAS thioesterase domain inhibitors, dose response, biochemical, kinetic fluorescence intensity (AID 624326).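 Note: rate of fluorescence rise from hydrolysis of a fluorogenic O-methyl fluorescein ester substrate.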 It is filed as functional.
Assay [6] concerns the target Cytochrome P450 2D6 (Homo sapiens, UniProt P10635).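 Note: CYP2D6 member of a cytochrome P450 panel assay.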
The target in assay [7] is Cytochrome P450 3A4 (Homo sapiens, UniProt P08684).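 Note: CYP3A4 tested as one member of a cytochrome P450 panel screen.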
The target in assay [8] is Cytochrome P450 2C19 (Homo sapiens, UniProt P33261). The assay can be described thus: Cytochrome panel assay with activity outcomes. Panel member name: p450-cyp2c19 Compounds with AC50 equal or less than 10 uM are considered active. As to conditions: read-out: AC50. The class given is functional.
The target of assay [9] is Cytochrome P450 2C9 (Homo sapiens, UniProt P11712).
The target of assay [10] is T4, Cytochrome P450 1A2 (Homo sapiens, UniProt P05177).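 Note: PubChem cytochrome P450 panel assay, CYP1A2 panel member.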
T4 sequence (P05177 whole entry): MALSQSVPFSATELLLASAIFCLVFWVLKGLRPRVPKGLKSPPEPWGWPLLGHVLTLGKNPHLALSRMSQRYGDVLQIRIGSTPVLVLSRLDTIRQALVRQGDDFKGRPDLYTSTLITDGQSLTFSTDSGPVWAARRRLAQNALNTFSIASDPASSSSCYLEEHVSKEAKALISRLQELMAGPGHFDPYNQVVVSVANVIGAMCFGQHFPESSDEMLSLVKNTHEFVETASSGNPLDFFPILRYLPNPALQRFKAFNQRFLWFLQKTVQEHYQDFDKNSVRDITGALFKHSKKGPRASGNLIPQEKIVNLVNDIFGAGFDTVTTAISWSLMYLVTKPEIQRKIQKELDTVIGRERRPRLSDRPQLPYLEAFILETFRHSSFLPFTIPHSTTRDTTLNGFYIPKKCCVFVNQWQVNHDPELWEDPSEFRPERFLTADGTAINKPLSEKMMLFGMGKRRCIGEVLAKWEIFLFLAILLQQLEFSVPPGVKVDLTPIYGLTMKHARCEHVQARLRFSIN

The subject of assay [11] is Vero. The assay is described as follows: cells. The class given is functional. Conditions: Chlorocebus sabaeus.
Assay [12] deals with T5, Corticotropin-releasing factor receptor 2/Corticotropin-releasing factor-binding protein (Homo sapiens, UniProt P24387+Q13324).
T5 sequence (Q13324 whole entry): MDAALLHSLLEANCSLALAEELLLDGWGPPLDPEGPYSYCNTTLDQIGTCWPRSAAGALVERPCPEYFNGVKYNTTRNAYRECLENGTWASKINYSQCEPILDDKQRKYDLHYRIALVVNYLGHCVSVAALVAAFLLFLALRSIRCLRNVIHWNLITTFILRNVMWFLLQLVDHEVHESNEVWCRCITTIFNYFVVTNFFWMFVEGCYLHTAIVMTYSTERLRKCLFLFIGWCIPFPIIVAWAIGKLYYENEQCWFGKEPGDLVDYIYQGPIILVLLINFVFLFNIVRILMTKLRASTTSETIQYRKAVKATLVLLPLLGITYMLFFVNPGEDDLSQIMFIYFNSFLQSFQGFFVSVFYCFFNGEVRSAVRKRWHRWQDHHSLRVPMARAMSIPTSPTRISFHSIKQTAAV
T5 sequence (P24387 whole entry): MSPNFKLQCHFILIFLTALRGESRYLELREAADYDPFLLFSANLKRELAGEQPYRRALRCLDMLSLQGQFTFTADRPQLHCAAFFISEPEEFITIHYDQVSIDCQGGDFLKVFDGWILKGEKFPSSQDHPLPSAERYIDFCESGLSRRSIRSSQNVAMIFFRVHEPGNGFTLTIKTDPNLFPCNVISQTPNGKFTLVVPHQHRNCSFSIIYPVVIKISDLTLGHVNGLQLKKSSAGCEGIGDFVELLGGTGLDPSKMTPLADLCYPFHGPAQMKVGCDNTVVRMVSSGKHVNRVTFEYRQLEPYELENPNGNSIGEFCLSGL
The assay is described as follows: activators of CRF receptor 2 with binding protein – uHTS hits, confirmation (AID 602473). The class given is functional. As to conditions: read-out: EC50_Mean.

Assay [13] is described as follows: P. falciparum Dd2 growth inhibitors, dose response, SYBR Green, cherry-picked samples (AID 1159567). The class given is functional, cell-based.

Calls of active or inactive are those of the source.

T3 sequence (P49327 whole entry, the tested form may be a part): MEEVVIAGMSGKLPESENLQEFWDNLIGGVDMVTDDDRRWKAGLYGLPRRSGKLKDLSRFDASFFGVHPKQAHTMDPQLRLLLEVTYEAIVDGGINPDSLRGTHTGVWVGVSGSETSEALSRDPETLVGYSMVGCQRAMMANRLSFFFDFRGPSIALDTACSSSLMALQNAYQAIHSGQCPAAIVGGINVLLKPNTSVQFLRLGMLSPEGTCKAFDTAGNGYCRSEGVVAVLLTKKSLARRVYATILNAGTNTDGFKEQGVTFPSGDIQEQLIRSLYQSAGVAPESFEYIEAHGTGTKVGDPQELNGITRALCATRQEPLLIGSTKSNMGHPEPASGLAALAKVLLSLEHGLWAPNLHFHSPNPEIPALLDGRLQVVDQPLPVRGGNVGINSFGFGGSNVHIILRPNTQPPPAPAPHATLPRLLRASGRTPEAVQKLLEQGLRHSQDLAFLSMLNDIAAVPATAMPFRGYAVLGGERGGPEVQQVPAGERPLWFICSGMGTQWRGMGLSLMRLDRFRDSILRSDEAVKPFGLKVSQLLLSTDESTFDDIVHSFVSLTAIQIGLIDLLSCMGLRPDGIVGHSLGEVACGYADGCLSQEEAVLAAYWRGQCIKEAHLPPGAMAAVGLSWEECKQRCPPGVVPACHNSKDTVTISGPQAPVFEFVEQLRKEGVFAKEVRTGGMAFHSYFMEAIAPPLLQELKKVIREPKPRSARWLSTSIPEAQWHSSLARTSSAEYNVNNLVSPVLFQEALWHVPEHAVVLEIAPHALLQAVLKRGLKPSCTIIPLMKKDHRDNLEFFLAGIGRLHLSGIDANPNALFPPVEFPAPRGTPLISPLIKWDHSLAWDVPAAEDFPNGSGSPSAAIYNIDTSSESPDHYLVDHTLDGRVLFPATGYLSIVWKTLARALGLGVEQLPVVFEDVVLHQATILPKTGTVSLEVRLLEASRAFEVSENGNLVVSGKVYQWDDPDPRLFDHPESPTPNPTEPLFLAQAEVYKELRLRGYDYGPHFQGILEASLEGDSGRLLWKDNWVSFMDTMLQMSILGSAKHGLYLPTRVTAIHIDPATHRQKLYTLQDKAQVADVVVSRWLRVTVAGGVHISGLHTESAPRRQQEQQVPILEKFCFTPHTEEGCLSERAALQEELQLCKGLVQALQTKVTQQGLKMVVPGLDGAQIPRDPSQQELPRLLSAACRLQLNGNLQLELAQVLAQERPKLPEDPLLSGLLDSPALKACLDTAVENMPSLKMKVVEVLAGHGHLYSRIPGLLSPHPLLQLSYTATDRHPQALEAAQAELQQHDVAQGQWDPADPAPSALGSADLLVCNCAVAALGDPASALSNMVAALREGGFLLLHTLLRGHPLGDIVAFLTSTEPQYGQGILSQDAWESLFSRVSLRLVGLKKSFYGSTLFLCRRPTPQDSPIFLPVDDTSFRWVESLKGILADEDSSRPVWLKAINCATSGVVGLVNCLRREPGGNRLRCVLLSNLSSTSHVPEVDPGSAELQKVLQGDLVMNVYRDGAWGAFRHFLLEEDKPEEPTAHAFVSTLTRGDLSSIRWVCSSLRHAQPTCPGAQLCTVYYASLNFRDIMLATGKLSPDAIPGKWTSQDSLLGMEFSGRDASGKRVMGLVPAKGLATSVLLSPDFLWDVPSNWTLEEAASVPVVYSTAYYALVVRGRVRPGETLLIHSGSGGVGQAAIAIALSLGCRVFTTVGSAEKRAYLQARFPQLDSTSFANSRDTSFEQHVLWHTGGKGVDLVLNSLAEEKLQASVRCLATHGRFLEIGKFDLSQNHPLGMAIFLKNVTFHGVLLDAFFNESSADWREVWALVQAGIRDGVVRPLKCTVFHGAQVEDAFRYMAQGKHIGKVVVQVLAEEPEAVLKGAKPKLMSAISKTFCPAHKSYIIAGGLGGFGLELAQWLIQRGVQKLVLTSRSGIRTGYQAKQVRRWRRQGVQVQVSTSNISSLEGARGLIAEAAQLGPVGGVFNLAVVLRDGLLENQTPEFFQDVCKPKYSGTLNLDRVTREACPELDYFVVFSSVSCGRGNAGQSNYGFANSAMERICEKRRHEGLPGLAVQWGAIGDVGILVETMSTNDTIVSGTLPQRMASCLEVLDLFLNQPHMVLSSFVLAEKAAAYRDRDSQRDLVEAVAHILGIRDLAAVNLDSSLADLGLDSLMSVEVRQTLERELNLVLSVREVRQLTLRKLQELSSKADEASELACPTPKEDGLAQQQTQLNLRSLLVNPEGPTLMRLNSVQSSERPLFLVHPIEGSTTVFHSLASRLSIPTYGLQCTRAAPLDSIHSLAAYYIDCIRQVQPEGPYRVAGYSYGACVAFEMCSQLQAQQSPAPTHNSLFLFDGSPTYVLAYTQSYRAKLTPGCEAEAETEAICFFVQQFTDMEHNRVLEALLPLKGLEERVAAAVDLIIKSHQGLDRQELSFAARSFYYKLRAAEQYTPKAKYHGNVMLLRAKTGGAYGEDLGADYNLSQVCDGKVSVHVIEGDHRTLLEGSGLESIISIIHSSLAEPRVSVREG
T2 sequence (P11940 whole entry): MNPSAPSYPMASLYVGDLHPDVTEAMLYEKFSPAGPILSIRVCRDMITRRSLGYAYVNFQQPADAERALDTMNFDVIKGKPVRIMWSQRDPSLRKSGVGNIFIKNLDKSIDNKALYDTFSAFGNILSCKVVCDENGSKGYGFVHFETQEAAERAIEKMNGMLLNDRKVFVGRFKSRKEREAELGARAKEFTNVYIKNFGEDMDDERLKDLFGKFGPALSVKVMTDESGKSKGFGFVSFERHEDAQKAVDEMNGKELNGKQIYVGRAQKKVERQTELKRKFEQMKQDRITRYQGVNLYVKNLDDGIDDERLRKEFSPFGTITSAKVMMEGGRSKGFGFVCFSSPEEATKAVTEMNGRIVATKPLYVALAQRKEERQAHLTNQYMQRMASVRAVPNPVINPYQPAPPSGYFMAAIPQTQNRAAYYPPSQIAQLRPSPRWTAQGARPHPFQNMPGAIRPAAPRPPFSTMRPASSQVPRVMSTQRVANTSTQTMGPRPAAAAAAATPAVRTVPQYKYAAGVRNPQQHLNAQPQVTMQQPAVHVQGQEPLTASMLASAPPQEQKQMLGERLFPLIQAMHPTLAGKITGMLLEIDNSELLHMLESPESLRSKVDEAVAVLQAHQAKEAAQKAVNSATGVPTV
Chain of Cytochrome P450 2C19 (P33261 whole entry): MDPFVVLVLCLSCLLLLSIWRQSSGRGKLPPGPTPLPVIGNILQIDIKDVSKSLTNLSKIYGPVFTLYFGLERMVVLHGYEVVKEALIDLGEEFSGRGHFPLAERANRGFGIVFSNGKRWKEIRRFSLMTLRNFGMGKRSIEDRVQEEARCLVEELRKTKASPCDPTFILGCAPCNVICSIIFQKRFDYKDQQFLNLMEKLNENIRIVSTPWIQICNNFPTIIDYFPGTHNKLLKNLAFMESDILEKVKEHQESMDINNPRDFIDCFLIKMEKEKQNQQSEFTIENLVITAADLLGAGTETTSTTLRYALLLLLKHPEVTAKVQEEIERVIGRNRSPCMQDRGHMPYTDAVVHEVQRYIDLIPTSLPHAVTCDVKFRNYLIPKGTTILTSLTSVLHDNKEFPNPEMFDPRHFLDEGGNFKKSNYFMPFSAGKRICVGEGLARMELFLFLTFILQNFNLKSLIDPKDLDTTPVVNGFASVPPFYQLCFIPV
Chain of Cytochrome P450 3A4 (P08684 whole entry): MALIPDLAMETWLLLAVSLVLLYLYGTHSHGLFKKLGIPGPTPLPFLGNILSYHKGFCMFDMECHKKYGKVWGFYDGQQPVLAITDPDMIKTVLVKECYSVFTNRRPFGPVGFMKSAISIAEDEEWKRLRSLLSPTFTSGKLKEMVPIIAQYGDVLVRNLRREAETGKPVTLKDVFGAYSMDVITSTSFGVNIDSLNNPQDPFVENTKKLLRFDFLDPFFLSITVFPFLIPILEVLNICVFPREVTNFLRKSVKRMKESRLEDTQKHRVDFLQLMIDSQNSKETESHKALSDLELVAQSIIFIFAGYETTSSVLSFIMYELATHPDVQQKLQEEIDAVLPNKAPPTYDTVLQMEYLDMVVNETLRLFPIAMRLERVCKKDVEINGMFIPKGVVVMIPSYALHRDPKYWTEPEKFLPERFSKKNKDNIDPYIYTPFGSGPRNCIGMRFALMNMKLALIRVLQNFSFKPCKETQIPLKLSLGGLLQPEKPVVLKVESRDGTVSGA
Chain of Cytochrome P450 2D6 (P10635 whole entry): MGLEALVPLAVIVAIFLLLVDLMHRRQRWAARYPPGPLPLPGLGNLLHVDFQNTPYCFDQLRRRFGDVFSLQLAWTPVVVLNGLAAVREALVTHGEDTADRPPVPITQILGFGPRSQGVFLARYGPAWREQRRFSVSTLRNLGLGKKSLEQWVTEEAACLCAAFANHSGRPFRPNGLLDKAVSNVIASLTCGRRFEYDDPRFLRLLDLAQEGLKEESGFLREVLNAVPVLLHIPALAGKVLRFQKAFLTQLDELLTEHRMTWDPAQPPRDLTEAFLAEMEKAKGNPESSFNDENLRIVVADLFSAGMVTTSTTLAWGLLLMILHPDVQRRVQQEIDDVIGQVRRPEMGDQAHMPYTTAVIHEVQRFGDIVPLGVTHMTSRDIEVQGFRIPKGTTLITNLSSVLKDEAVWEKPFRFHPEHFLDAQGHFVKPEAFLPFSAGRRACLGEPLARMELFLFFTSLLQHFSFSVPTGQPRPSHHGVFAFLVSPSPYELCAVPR

Regarding `COc1ccc(S(=O)(=O)N2CCC(C(=O)NCc3cccnc3)CC2)cc1C`, in assay [1], the EC50 was > 260 µM (inactive). `COc1ccc(Nc2ccc([N+](=O)[O-])cn2)cn1`: the figures for the IC50 in assay [2] and in assay [3] were > 66 µM (inactive) and 59.6 µM (inactive), respectively. `COc1ccc(-c2nn(-c3ccccc3)cc2/C=C/C(=O)O)cc1[N+](=O)[O-]`: the IC50 was 12.1 µM (active) in assay [4] and 13.6 µM (active) in assay [5].

As to `N=c1n(-c2ccccc2)c(O)cc(=O)n1-c1ccccc1`, the AC50 in assay [6] is 22.4 µM (inconclusive); in assay [7], 25.1 µM (inconclusive).

For `Fc1cc(NCc2ccccc2)nc(NCc2ccccc2)n1`, the EC50 in [1] was 91.1 µM (active).

Regarding `CCn1cc(C(=O)NCc2ccc(Cl)cc2)c(=O)c2cc(S(=O)(=O)N(C)C)ccc21`, the results for the IC50 in [4] and in [5] were 9.03 µM (active) and 8.74 µM (active), respectively.

Take `COc1ccc(-c2nnn(Cc3nc(N)nc(N4CCOCC4)n3)n2)cc1OC`: the AC50 was 35.5 µM (inconclusive) in [8], 12.6 µM (inconclusive) in assay [6], 28.2 µM (inconclusive) in assay [7] and 25.1 µM (inconclusive) in [9]. As to `COC(=O)c1c(NC(=O)c2ccc(C)o2)sc2c1CCCCC2`, the IC50 in assay [2] and in [3] was > 66 µM (inactive) in each case. Take `CC(C)(C)N(Cc1ccccc1)C(=O)COC(=O)c1cccc([N+](=O)[O-])c1`: the IC50 is 4.39 µM (active) in assay [4] and 2.97 µM (active) in assay [5].

On to `CCOC(=O)/C(C#N)=C1/SC(CC)C(=O)N1c1ccc(Br)cc1` (configuration not stated), for which the AC50 in [6] was 11.2 µM (inconclusive); in assay [10] it was 31.6 µM (inconclusive); in assay [7], 28.2 µM (inconclusive). Regarding `Cc1ccccc1NC(=O)OCc1cn(-c2ccc(Cl)cc2)nn1`, the values for the AC50 in [8], in [6] and in assay [7] were 8.91 µM (inconclusive), 0.708 µM (inconclusive) and 0.794 µM (inconclusive), respectively. Regarding `CCc1ccccc1NC1=NCC(=O)N1C1CCCCC1`, the EC50 in assay [1] was > 260 µM (inactive).

In the case of `Cc1cc(S(=O)(=O)NCCCN2CCOCC2)ccc1F`, the AC50 in assay [8] and in assay [7] was 28.2 µM (inconclusive) in each case. With `O=C(CSc1ncnc2c1nnn2Cc1ccccc1)NC1CCCCC1`, the IC50 in [4] is 24.3 µM (inactive); in assay [5], 23.6 µM (inactive).

As to `COc1ccc(OC)c(/C=C/C(=O)c2ccc3c(c2)OCCO3)c1`, the 50% cytotoxic concentration (CC50) in [11] was 18.8 µM (active). Regarding `COc1ccc(C(=O)NC(=S)Nc2nc(C)c(C(=O)N(C)C)s2)cc1`, the IC50 in [2] and in assay [3] was > 66 µM (inactive) each time. Turning to `O=C(CSc1ncn(-c2ccccc2)n1)Nc1ccc2c(c1)OCCO2`, the IC50 in [2] and in [3] was > 66 µM (inactive) throughout. For `O=C(NCc1ccc(N2CCCC2=O)cc1)Nc1ccccc1`, in [1], the EC50 was > 260 µM (inactive).

Turning to `N#C/C(=C\c1ccccc1[N+](=O)[O-])C(=O)NC1CCCCC1`, the IC50 in assay [2] and in assay [3] was > 66 µM (inactive) throughout. Moreover, the EC50 in assay [12] was > 53 µM (inactive). Turning to `Cc1ccnc(N2CCCC(C(=O)Nc3ccc(C)c(C)c3)C2)n1` (configuration not stated), the EC50 in [1] is > 260 µM (inactive). As for `COc1ccc(CNCCc2ccccc2)cc1OCC(N)=O`, the AC50 in [8] was 6.31 µM (inconclusive); in assay [7] it was 17.8 µM (inconclusive); in assay [9], 0.0282 µM (inconclusive). Consider `CC1=Nc2cc(C(=O)O)ccc2Sc2c(C)ccc(C)c21`, for which the EC50 in assay [1] was > 260 µM (inactive). Consider `CO/N=C1/c2cc(OC)ccc2O[C@@H](c2cccc(OC)c2)[C@H]1O`, for which the AC50 in [8] was 3.98 µM (inconclusive); in assay [6] it was 3.16 µM (inconclusive); in [7], 6.31 µM (inconclusive). As to `CCC(C)c1ccccc1NC(=O)c1cc(C)no1` (configuration not stated), in [1], the EC50 was > 260 µM (inactive).

Turning to `Cc1ccc(C)c(S(=O)(=O)N2CCN(C(=O)Cc3ccc(S(=O)(=O)N4CCOCC4)s3)CC2)c1`, the IC50 in assay [4] was 6.49 µM (active); in assay [5] it was 7.72 µM (active). Consider `CCCN1C2=NCCCN2c2ccccc21`, for which the figures for the AC50 in [8] and in assay [7] were 20 µM (inconclusive) and 35.5 µM (inconclusive), respectively. As to `O=C(CSc1nccc(=O)[nH]1)N1CCCc2ccccc21`, the IC50 in assay [2] and in assay [3] was > 66 µM (inactive) in each case. In the case of `CC1C(=O)N(Cc2cn(Cc3ccco3)nn2)CCS(=O)(=O)N1Cc1ccc(-c2ccccc2)cc1` (configuration not stated), the CC50 in [11] is > 25 µM (active). With `CC(=O)c1cccc(-c2ccnc3c2CC(C(=O)Nc2ccc(C(C)C)cc2)O3)c1` (configuration not stated), the IC50 in [4] is 10.8 µM (active); in [5] it was 6.77 µM (active). In the case of `NNC(=O)C1C(O)CCC2CN3CCc4c([nH]c5ccccc45)C3CC21` (configuration not stated), the CC50 in [11] is > 25 µM (active). Consider `Cc1ccc(CN2CCN(/N=C/c3ccc(C)s3)CC2)c(C)c1`, for which, in [1], the EC50 is > 260 µM (inactive). Turning to `C[C@@H]1CN([C@@H](C)CO)C(=O)c2cc(C#Cc3ccccc3)cnc2O[C@H]1CN(C)C(=O)CCN1CCCCC1`, in assay [13], the concentration at half-maximal activity (AC50) is 3.03 µM (active). Same read-out and setting: to `O=C(C1CCCC1)N1CC[C@@H]2[C@H](CO)Nc3ccc(Br)cc3[C@@H]21` belongs 12.7 µM (active); to `COc1ccc2c3c(n(C)c2c1)[C@@H](CO)N(C(=O)Nc1ccc(F)cc1)CC31CN(C(=O)c2ccc3c(c2)OCO3)C1`, 5.67 µM (active).

In the case of `CCCC(=O)N1CCC2(CC1)CN(Cc1ccncc1)[C@@H](CO)c1[nH]c3cc(OC)ccc3c12`, the AC50 in [13] was 7.29 µM (active).
